The source of these data is ChEMBL document CHEMBL4622919, “Hypersonins A-D, Polycyclic Polyprenylated Acylphloroglucinols with a 1,2-seco-Homoadamantane Architecture from Hypericum wilsonii” (J Nat Prod, 2020).

The test system of this experiment is Splenocyte. Nature of the experiment: Immunosuppressive activity in BALB/c mouse splenocytes assessed as reduction in anti-mouse CD3/CD28-induced cell proliferation after 72 hrs by flow cytometric analysis. It is filed as functional, cell-based. On the technique in general: A flow cytometer gives signals particle by particle.

SMILES strings stand for the structures.

In the case of `COC(=O)[C@]12C[C@H](C(C)(C)O)C(C)(C)[C@H]1C[C@H]1C[C@@](CC=C(C)C)(C2=O)C(O)=C(C(=O)C(C)C)C1(C)C`, the IC50 stood at 8.3 µM.

Broadly, the IC50 is the midpoint of a concentration-inhibition curve.
